{
  "source": "patent US8138216B2",
  "about": "“Cannabinoid receptor antagonists/inverse agonists useful for treating metabolic disorders, including obesity and diabetes” (Jenrin Discovery, Inc., priority 2007, dated 2012)",
  "origin": "cited, not measured here",
  "system": "patients with type 2 diabetes",
  "conditions": "after six months of treatment; baseline value 7.9; patients not treated with other anti-diabetic medications; placebo 0.3%",
  "data": [
    {"smiles": "Cc1c(C(=O)NN2CCCCC2)nn(-c2ccc(Cl)cc2Cl)c1-c1ccc(Cl)cc1", "note": "[rimonabant]", "values": [
      {"measurement": "HbA1c levels lowered", "result": 0.8, "unit": "%"}
    ]}
  ]
}
